# In US20160280743A1, “BACTERIAL MUTANTS AND METHODS OF USE” (priority 2015, published 2016):
# Like-named read-outs stand apart in the source and are kept apart here.
# Experiments:
# [1] = tested on: E. coli WT, WT-Pore, ΔTolC, ΔTolC-Pore; type: cell-based, Escherichia coli; conditions: E. coli
# [2] = tested on: P. aeruginosa PAO1, PAO1-Pore, Δ3, Δ3-Pore; test: Fold MIC change between P. aeruginosa strains (OM barrier, efflux); type: cell-based, Pseudomonas aeruginosa; conditions: for Fold MIC change, Efflux, PAO1-Pore/Δ3-Pore / Fold MIC change, Efflux, PAO1/Δ3 / Fold MIC change, OM barrier, PAO1/PAO1-Pore / Fold MIC change, OM barrier, Δ3/Δ3-Pore: P. aeruginosa
# E. coli GD102 (ΔTolC) = conditions: E. coli ΔTolC without pore; 0.1% arabinose; LB, 37° C., 16 h
# Experimental: (§3) Susceptibilities of E. coli and P. aeruginosa cells to different classes of antibiotics were determined by two-fold broth dilution method [1] with following modifications. Cells were grown in Luria-Bertani (LB) broth (tryptone 10 g/L, yeast extract 5 g/L and NaCl 5 g/L) with appropriate selection markers as needed, at 37° C. with shaking at 200 rpm. When needed, at OD600˜0.3, either L-arabinose (final concentration 0.1%) or IPTG (final concentration 0.1 mM) were added to induce the expression of the pore and cells were further incubated until OD600 reached 1.0. MICs of various antimicrobial agents were measured in 96-well micro-titer plates. For this purpose, exponentially growing cells were inoculated at a density of 10^5 cells/ml into wells containing LB medium in the presence of two-fold increasing concentrations of drugs under investigation at constant inducer concentration of 0.1% arabinose for E. coli or 0.1 mM IPTG for P. aeruginosa strains. Cell growth was determined visually or using Spark 10M microplate reader (Tecan) after incubation of the micro-titer plates at 37° C. for 16 h.
# (§4) For this purpose, induced cells were dispensed into 96-well microplates with LB medium containing two-fold dilutions of an antibiotic of interest and a respective concentration of an inducer.
# [3] = tested on: E. coli ΔTolC-Pore (GKCW103, FhuAΔC/Δ4L pore); conditions: 0.1% arabinose, LB, 37° C., 16 h
# Experimental: as §3, §4
# [4] = tested on: P. aeruginosa PAO1Δ3 (Δ3); conditions: P. aeruginosa Δ3 without pore; 0.1 mM IPTG; LB, 37° C., 16 h
# Experimental: as §3, §4
# E. coli BW 25113 (WT) [5] = test: microbe, parasite or virus in culture; conditions: Escherichia coli, 16 h, read-out: MIC BW 25113 (WT) —
# Experimental: as §3, §4
# [6] = tested on: E. coli WT-Pore (GKCW101, FhuAΔC/Δ4L pore); test: microbe, parasite or virus in culture; conditions: Escherichia coli, 16 h, read-out: MIC BW 25113 (WT) Pore
# Experimental: as §3, §4
# P. aeruginosa PAO1 [7] = test: microbe, parasite or virus in culture; conditions: Pseudomonas aeruginosa
# Experimental: as §3, §4
# [8] = tested on: P. aeruginosa Δ3-Pore (GKCW116, FhuAΔC/Δ4L pore); test: MIC, two-fold broth dilution, P. aeruginosa Δ3-Pore; conditions: for MIC Δ3 Pore: P. aeruginosa Δ3-Pore, 0.1 mM IPTG, LB, 37° C., 16 h
# Experimental: as §3, §4
# [9] = tested on: P. aeruginosa PAO1, PAO1-Pore, Δ3, Δ3-Pore cells; test: Azithromycin uptake into P. aeruginosa cells by LC-MS; conditions: 5 μM; 0.1 mM IPTG; LC-MS (FIG. 5C)
# Experimental: For LC-MS analyses, P. aeruginosa cells were grown to stationary phase in 50 mM MOPS (pH 7.2) M9 minimal medium supplemented with 1% glycerol and trace ions at 37° C. Stationary phase cells were subcultured 1:100 for 16 hours in the same fresh medium at 37° C. After 16 hours, cultures were induced with 0.1 mM IPTG for 4 hours at 37° C. Cells were collected by centrifugation at room temperature and resuspended in PMG buffer at one-tenth the original culture volume. […] At appropriate time points, 100 μl of cells were removed and collected onto filter plates using a HTS Vacuum Manifold (EMD Millipore). Filters were dried overnight and extracted in a two-step process using 1) 800 μl of 100% HPLC grade methanol and 2) 200 μl of 80% HPLC methanol: 20% ultrapure water. […] For HPLC, two mobile phases (A—100% water, B—100% acetonitrile; both with 0.1% formic acid) were used with a step gradient of 20, 50 and 100% of B for 1, 4, and 11 min, respectively.
# E. coli BW 25113 (WT) [10] = conditions: E. coli WT without pore; 0.1% arabinose; LB, 37° C., 16 h
# Experimental: as §3, §4
# [11] = tested on: E. coli WT-Pore (GKCW101, FhuAΔC/Δ4L pore); conditions: 0.1% arabinose, LB, 37° C., 16 h
# Experimental: as §3, §4
# P. aeruginosa PAO1 [12] = conditions: P. aeruginosa PAO1 without pore; 0.1 mM IPTG; LB, 37° C., 16 h
# Experimental: as §3, §4
# [13] = tested on: P. aeruginosa PAO1-Pore (GKCW115, FhuAΔC/Δ4L pore); test: MIC, two-fold broth dilution, P. aeruginosa PAO1-Pore; conditions: P. aeruginosa PAO1-Pore; 0.1 mM IPTG; LB, 37° C., 16 h
# Experimental: as §3, §4
# E. coli WT = test: Vancomycin disc susceptibility assay, E. coli WT; type: cell-based; conditions: Escherichia coli, 100 μg vancomycin disc, read-out: Zone of clearance
# Experimental: (§1) Vancomycin susceptibility spot assay. Indicated E. coli (A) and P. aeruginosa (B) strains were seeded onto LB agar plates, ˜10^8 cells per plate, with and without inducers 0.1% arabinose and 0.1 mM IPTG, respectively. […] Seeded plates were incubated overnight at 37° C. Large clearance zones can be clearly seen in the presence of inducers.
# E. coli WT-Pore = test: Vancomycin disc susceptibility assay, E. coli WT-Pore; type: cell-based; conditions: Escherichia coli, read-out: Zone of clearance, E. coli WT-Pore, 100 μg vancomycin disc
# Experimental: as §1
# E. coli ΔTolC = test: Vancomycin disc susceptibility assay, E. coli ΔTolC; type: cell-based; conditions: Escherichia coli, read-out: Zone of clearance, E. coli ΔTolC, 100 μg vancomycin disc
# Experimental: as §1
# E. coli ΔTolC-Pore = test: Vancomycin disc susceptibility assay, E. coli ΔTolC-Pore; type: cell-based; conditions: Escherichia coli, read-out: Zone of clearance, E. coli ΔTolC-Pore, 100 μg vancomycin disc
# Experimental: (§2) Vancomycin susceptibility spot assay. […] […] Seeded plates were incubated overnight at 37° C. Large clearance zones can be clearly seen in the presence of inducers.
# P. aeruginosa PAO1 [14] = test: Vancomycin disc susceptibility assay, P. aeruginosa PAO1; type: cell-based; conditions: Pseudomonas aeruginosa, 200 μg vancomycin disc, read-out: Zone of clearance
# Experimental: as §2
# P. aeruginosa PAO1-Pore = test: Vancomycin disc susceptibility assay, P. aeruginosa PAO1-Pore; type: cell-based; conditions: Pseudomonas aeruginosa, 200 μg vancomycin disc, read-out: Zone of clearance
# Experimental: as §1
# P. aeruginosa Δ3 = test: Vancomycin disc susceptibility assay, P. aeruginosa Δ3; type: cell-based; conditions: Pseudomonas aeruginosa, 200 μg vancomycin disc, read-out: Zone of clearance
# Experimental: as §1
# P. aeruginosa Δ3-Pore = test: Vancomycin disc susceptibility assay, P. aeruginosa Δ3-Pore; type: cell-based; conditions: Pseudomonas aeruginosa, 200 μg vancomycin disc, read-out: Zone of clearance
# Experimental: as §1
# [15] = PAO1, 16 h, read-out: MIC PAO1 —
compound,measurement,setting,value
CC[C@H]1OC(=O)[C@H](C)[C@@H](O[C@H]2C[C@@](C)(OC)[C@@H](O)[C@H](C)O2)[C@H](C)[C@@H](O[C@@H]2O[C@H](C)C[C@H](N(C)C)[C@H]2O)[C@](C)(O)C[C@@H](C)CN(C)[C@H](C)[C@@H](O)[C@]1(C)O [Azithromycin],"Fold MIC change, Efflux, WT-Pore/ΔTolC-Pore",[1],16 fold
same,"Fold MIC change, Efflux, WT/ΔTolC",[1],4 fold
same,"Fold MIC change, OM barrier, WT/WT-Pore",[1],4 fold
same,"Fold MIC change, OM barrier, ΔTolC/ΔTolC-Pore",[1],16 fold
same,Decrease of MIC from PAO1 cells to induced Δ3-Pore cells,[2]; FIG. 5B,more than 2000 fold
same,Drop in MIC in PAO1-Pore cells with increasing inducer,[2]; IPTG (FIG. 5),32 fold
same,Drop in MIC in Δ3-Pore cells with increasing inducer,[2]; IPTG (FIG. 5),64 fold
same,"Fold MIC change, Efflux, PAO1-Pore/Δ3-Pore",[2],64 fold
same,"Fold MIC change, Efflux, PAO1/Δ3",[2],32 fold
same,"Fold MIC change, OM barrier, PAO1/PAO1-Pore",[2],32 fold
same,"Fold MIC change, OM barrier, Δ3/Δ3-Pore",[2],64 fold
same,MIC GD102 (ΔTolC) —,E. coli GD102 (ΔTolC),0.5 µg/mL
same,MIC GD102 (ΔTolC) Pore,[3],0.031 µg/mL
same,MIC Δ3 —,[4],4 µg/mL
same,MIC,E. coli BW 25113 (WT) [5],2 µg/mL
same,MIC,[6],0.5 µg/mL
same,MIC,P. aeruginosa PAO1 [7]; [15],128 µg/mL
same,MIC,"P. aeruginosa PAO1 [7]; PAO1, read-out: MIC in P. aeruginosa PAO1 cells",171 µM
same,MIC Δ3 Pore,[8],0.063 µg/mL
same,MIC in P. aeruginosa Δ3-Pore cells,"[8]; induced, plateau with increasing IPTG (FIG. 5)",0.083 µM
same,Accumulation of azithromycin in permeabilized PAO1-Pore and Δ3-Pore cells,[9],significantly higher than PAO1 and Δ3 cells
CCCCCCCCCCCCOS(=O)(=O)[O-].[Na+] [SDS],"Fold MIC change, Efflux, WT-Pore/ΔTolC-Pore",[1],2000 fold
same,"Fold MIC change, Efflux, WT/ΔTolC",[1],2000 fold
same,"Fold MIC change, OM barrier, WT/WT-Pore",[1],1 fold
same,"Fold MIC change, OM barrier, ΔTolC/ΔTolC-Pore",[1],1 fold
same,"Fold MIC change, Efflux, PAO1-Pore/Δ3-Pore",[2],64 fold
same,"Fold MIC change, Efflux, PAO1/Δ3",[2],≧2 fold
same,"Fold MIC change, OM barrier, PAO1/PAO1-Pore",[2],≧2 fold
same,"Fold MIC change, OM barrier, Δ3/Δ3-Pore",[2],64 fold
same,MIC BW 25113 (WT) —,E. coli BW 25113 (WT) [10],10000 µg/mL
same,MIC BW 25113 (WT) Pore,[11],10000 µg/mL
same,MIC GD102 (ΔTolC) —,E. coli GD102 (ΔTolC),5 µg/mL
same,MIC GD102 (ΔTolC) Pore,[3],5 µg/mL
same,MIC PAO1 —,P. aeruginosa PAO1 [12],>10000 µg/mL
same,MIC Δ3 —,[4],10000 µg/mL
same,MIC Δ3 Pore,[8],156.3 µg/mL
same,MIC PAO1 Pore,[13],10000 µg/mL
CN[C@H](CC(C)C)C(=O)N[C@H]1C(=O)N[C@@H](CC(N)=O)C(=O)N[C@H]2C(=O)N[C@H]3C(=O)N[C@H](C(=O)N[C@H](C(=O)O)c4cc(O)cc(O)c4-c4cc3ccc4O)[C@H](O)c3ccc(c(Cl)c3)Oc3cc2cc(c3O[C@@H]2O[C@H](CO)[C@@H](O)[C@H](O)[C@H]2O[C@H]2C[C@](C)(N)[C@H](O)[C@H](C)O2)Oc2ccc(cc2Cl)[C@H]1O [Vancomycin],"Fold MIC change, Efflux, WT-Pore/ΔTolC-Pore",[1],2 fold
same,"Fold MIC change, Efflux, WT/ΔTolC",[1],0.5 fold
same,"Fold MIC change, OM barrier, WT/WT-Pore",[1],16 fold
same,"Fold MIC change, OM barrier, ΔTolC/ΔTolC-Pore",[1],64 fold
same,"Fold MIC change, Efflux, PAO1-Pore/Δ3-Pore",[2],2 fold
same,"Fold MIC change, Efflux, PAO1/Δ3",[2],2 fold
same,"Fold MIC change, OM barrier, PAO1/PAO1-Pore",[2],16 fold
same,"Fold MIC change, OM barrier, Δ3/Δ3-Pore",[2],16 fold
same,zone of inhibition at 100 µg/disc,E. coli WT; Arabinose (0.1%),6 mm
same,zone of inhibition at 100 µg/disc,E. coli WT; IPTG (0.1 mM),6 mm
same,zone of inhibition at 100 µg/disc,E. coli WT; No inducer,5 mm
same,zone of inhibition at 100 µg/disc,E. coli WT-Pore; Arabinose (0.1%),16 mm
same,zone of inhibition at 100 µg/disc,E. coli WT-Pore; IPTG (0.1 mM),11 mm
same,zone of inhibition at 100 µg/disc,E. coli WT-Pore; No inducer,8 mm
same,zone of inhibition at 100 µg/disc,E. coli ΔTolC; Arabinose (0.1%),6 mm
same,zone of inhibition at 100 µg/disc,E. coli ΔTolC; IPTG (0.1 mM),5 mm
same,zone of inhibition at 100 µg/disc,E. coli ΔTolC; No inducer,5 mm
same,zone of inhibition at 100 µg/disc,E. coli ΔTolC-Pore; Arabinose (0.1%),15 mm
same,zone of inhibition at 100 µg/disc,E. coli ΔTolC-Pore; IPTG (0.1 mM),16 mm
same,zone of inhibition at 100 µg/disc,E. coli ΔTolC-Pore; No inducer,7 mm
same,zone of inhibition at 200 µg/disc,P. aeruginosa PAO1 [14]; Arabinose (0.1%),12 mm
same,zone of inhibition at 200 µg/disc,P. aeruginosa PAO1 [14]; IPTG (0.1 mM),10 mm
same,zone of inhibition at 200 µg/disc,P. aeruginosa PAO1 [14]; No inducer,11 mm
same,zone of inhibition at 200 µg/disc,P. aeruginosa PAO1-Pore; Arabinose (0.1%),21 mm
same,zone of inhibition at 200 µg/disc,P. aeruginosa PAO1-Pore; IPTG (0.1 mM),19 mm
same,zone of inhibition at 200 µg/disc,P. aeruginosa Δ3; Arabinose (0.1%),12 mm
same,zone of inhibition at 200 µg/disc,P. aeruginosa Δ3; IPTG (0.1 mM),9 mm
same,zone of inhibition at 200 µg/disc,P. aeruginosa Δ3; No inducer,10 mm
same,zone of inhibition at 200 µg/disc,P. aeruginosa Δ3-Pore; Arabinose (0.1%),22 mm
same,zone of inhibition at 200 µg/disc,P. aeruginosa Δ3-Pore; IPTG (0.1 mM),18 mm
same,zone of inhibition at 200 µg/disc,P. aeruginosa Δ3-Pore; No inducer,12 mm
same,MIC GD102 (ΔTolC) —,E. coli GD102 (ΔTolC),256 µg/mL
same,MIC GD102 (ΔTolC) Pore,[3],4 µg/mL
same,MIC Δ3 —,[4],1024 µg/mL
same,MIC,E. coli BW 25113 (WT) [5],128 µg/mL
same,MIC,[6],8 µg/mL
same,MIC,P. aeruginosa PAO1 [7]; [15],2050 µg/mL
same,MIC Δ3 Pore,[8],64 µg/mL
Coumermycin,"Fold MIC change, Efflux, WT-Pore/ΔTolC-Pore",[1],4 fold
same,"Fold MIC change, Efflux, WT/ΔTolC",[1],1 fold
same,"Fold MIC change, OM barrier, WT/WT-Pore",[1],4 fold
same,"Fold MIC change, OM barrier, ΔTolC/ΔTolC-Pore",[1],16 fold
same,"Fold MIC change, Efflux, PAO1-Pore/Δ3-Pore",[2],1 fold
same,"Fold MIC change, Efflux, PAO1/Δ3",[2],1 fold
same,"Fold MIC change, OM barrier, PAO1/PAO1-Pore",[2],16 fold
same,"Fold MIC change, OM barrier, Δ3/Δ3-Pore",[2],16 fold
same,MIC BW 25113 (WT) —,E. coli BW 25113 (WT) [10],8 µg/mL
same,MIC BW 25113 (WT) Pore,[11],2 µg/mL
same,MIC GD102 (ΔTolC) —,E. coli GD102 (ΔTolC),8 µg/mL
same,MIC GD102 (ΔTolC) Pore,[3],0.5 µg/mL
same,MIC PAO1 —,P. aeruginosa PAO1 [12],16 µg/mL
same,MIC Δ3 —,[4],16 µg/mL
same,MIC Δ3 Pore,[8],1 µg/mL
same,MIC PAO1 Pore,[13],1 µg/mL
